Assay results reported in patent US20120328526A1, “Modulation of Nad+ Activity in Neuropathophysiological Conditions and Uses Thereof” (University of Maryland, Baltimore, priority 2011, published 2012).
“Also recorded” adds a separate entry of the source.

Key:
[1] = tested on: traumatic brain injury mice; assay: Open field test (anti-clockwise/clockwise rotations) after traumatic brain injury; format: in vivo, mouse; conditions: NMN 500 mg/kg I.P. at 1 hour post-injury; 7 days post-injury; listed as NMN
Procedure: FIGS. 9A-9B show traumatic brain injury-induced deficits in sensorimotor function and cognition are ameliorated by nicotinamide mononucleotide treatment. FIG. 9A: Fine motor coordination deficits were quantified using a beam walk test in C57Bl/6 mice subjected to moderate-level traumatic brain injury and treated with nicotinamide mononucleotide (500 mg/kg, I.P.) or equal volume of vehicle at 1 hour post-injury. Hindlimb foot placement was recorded up to 7 days post-injury and the number of foot faults recorded from 50 steps. Naïve C57Bl/6 mice served as a control group. […] Analysis was by repeated measures one-way ANOVA, followed by post-hoc adjustments using Student-Newman-Keuls test. Mean ±S.E.M.; n=5/group. FIG. 9B: Cognitive performance was analyzed by measuring the number of anti-clockwise and clockwise rotations of traumatic brain injury mice in an open field test performed at 7 days post-injury.
The effect of nicotinamide mononucleotide on traumatic brain injury-induced changes in fine motor coordination examined using a beam walking task in which mice were trained to cross an elevated narrow wooden beam. The mouse was placed on the left end of the beam and the number of foot faults for the right hind limb was recorded over 50 steps on the beam. […] Their activity was measured and recorded using the Any-maze video tracking system. […]

[2] = tested on: CD38-deficient cells; assay: Oxygen-glucose deprivation (OGD) in CD38-deficient cell cultures; format: cell-based, mouse
From the text: At later recovery periods, tissue NAD(H) decrease since the NAD^+ translocates from mitochondria to the cytosol and is hydrolyzed by the activated NAD^+ glycohydrolases CD38 and PARP1. CD38-dependent overactivation of microglia under diabetic conditions leads to aggravation of ischemic brain damage, astrocytes and neurons prepared from CD38 knockout animals with microglia (9) from wild type or CD38-null animals are co-cultured. The co-cultures are then subjected to OGD and the cell death assessed at 24 h of recovery.
Exposure of cortical astrocytes to OGD plus ISS for 4 h results in significant (>50%) cell death after 24 h of reoxygenation (24) was determined. When cortical neurons are subjected to the same insult for 1 h, a similar level of cell death (40-50%) was observed. Cells cultured under hyperglycemic conditions (30 mM glucose) are more sensitive to the oxygen-glucose deprivation (OGD) insult. The CD38-deficient cells will have elevated basal levels of NAD(H) since the brain NAD(H) levels in CD38-null mice are several-fold higher when compared to wild type mice (6). The protective effect of CD38 knockout in specific cell types will also depend on the oxygen-glucose deprivation-induced loss of mitochondrial NAD(H) that can promote total cellular NAD(H) depletion. […]

[3] = Core temperature and blood pressure after nicotinamide mononucleotide administration in post-ischemic animals; format: in vivo, mouse
From the text: For quantification of uninjured cells within the CA1 sector of the hippocampus an unbiased stereological technique was used (27). […] This is in accord with the degree of hippocampal injury reported in other models of mouse forebrain ischemia. There were no seizure incidents during the first hours of recovery however there was about 10% mortality in the 5 days recovery group. […] To exclude the possibility that the protection was due to hypothermia, the treated animals' core temperature was monitored for 1 h after the nicotinamide mononucleotide administration. The body temperature was stable at 37.5° C. Similarly there was no effect of nicotinamide mononucleotide administration on the animals' blood pressure that was maintained between 80 and 100 mmHg after the compound injection.

NC(=O)c1ccc[n+]([C@@H]2O[C@H](COP(=O)([O-])O)[C@@H](O)[C@H]2O)c1 [nicotinamide mononucleotide]
cognitive performance: anti-clockwise rotations in open field test [1]: virtually indistinguishable from the naïve mice; also recorded: reduced anti-clockwise rotations
protective effect in CD38-deficient cells compared to PARP-1 inhibitors 3-AB or PJ34 [2]: less efficient protective effect
effect on animals' blood pressure ([3]; after the compound injection (500 mg/kg)): no effect
body (core) temperature after administration ([3]; monitored for 1 h after NMN administration (500 mg/kg)): 37.5 °C
